Target: T1, HMG-CoA reductase (Rattus norvegicus, UniProt P51639)
T1 construct: microsomes were separated from liver tissues to be used as an enzyme source; from tissue; host or cells: liver microsomes of fed rats
T1 sequence (P51639 1-887): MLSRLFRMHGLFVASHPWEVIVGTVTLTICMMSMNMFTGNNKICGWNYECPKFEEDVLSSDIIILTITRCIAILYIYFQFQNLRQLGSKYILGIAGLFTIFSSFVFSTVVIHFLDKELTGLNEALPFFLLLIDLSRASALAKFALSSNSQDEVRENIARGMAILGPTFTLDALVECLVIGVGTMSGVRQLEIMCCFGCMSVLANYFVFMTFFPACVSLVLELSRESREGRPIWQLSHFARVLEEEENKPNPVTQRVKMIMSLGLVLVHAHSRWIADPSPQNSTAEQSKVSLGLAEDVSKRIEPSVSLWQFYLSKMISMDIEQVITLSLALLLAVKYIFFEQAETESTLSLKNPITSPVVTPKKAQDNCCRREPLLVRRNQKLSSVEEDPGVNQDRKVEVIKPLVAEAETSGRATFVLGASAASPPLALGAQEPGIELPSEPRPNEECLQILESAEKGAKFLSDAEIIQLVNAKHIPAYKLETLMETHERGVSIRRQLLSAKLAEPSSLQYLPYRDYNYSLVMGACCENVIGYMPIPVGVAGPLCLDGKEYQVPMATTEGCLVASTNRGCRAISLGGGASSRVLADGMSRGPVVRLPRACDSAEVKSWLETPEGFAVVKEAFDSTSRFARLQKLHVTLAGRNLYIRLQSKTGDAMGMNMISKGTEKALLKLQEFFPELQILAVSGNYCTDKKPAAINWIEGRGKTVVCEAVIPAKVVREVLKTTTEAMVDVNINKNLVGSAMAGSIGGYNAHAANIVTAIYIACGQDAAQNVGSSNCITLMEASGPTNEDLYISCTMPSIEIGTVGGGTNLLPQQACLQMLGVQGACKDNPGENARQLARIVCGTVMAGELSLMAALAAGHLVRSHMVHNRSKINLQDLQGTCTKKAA
Experiment: HMG-CoA reductase activity in liver microsomes of fed rats
Assay type: in vivo
Experimental: To determine the effect of feeding NG5006 to rats on the activities of ACAT and HMG-CoA reductase, microsomes were separated from liver tissues to be used as an enzyme source.
1 g each of the livers taken from each group of rats of Example 12 was homogenized in 5 ml of homogenization medium(0. 1 M KH2PO4, pH 7.4, 0.1 mM EDTA and 10 mM β-mercaptoethanol). The homogenate was centrifuged at 3,000×g for 10 min. at 4° C. and the supernatant thus obtained was centrifuged at 15,000×g for 15 min. at 4° C. to obtain a supernatant. The supernatant was put into an ultracentrifuge tube(Beckman) and centrifuged at 100,000×g for 1 hour at 4° C. to obtain microsomal pellets, which were then suspended in 3 ml of the homogenization medium and centrifuged at 100,000×g for 1 hour at 4° C. The pellets thus obtained were suspended in 1 ml of the homogenization medium. The protein concentration of the resulting suspension was determined by Lowry's method and then adjusted to 4 to 8 mg/ml. The resulting suspension was stored in a deep freezer(Biofreezer, Forma Scientific Inc.).
The activity of HMG-CoA reductase was determined by employing [^14C]HMG-CoA, in accordance with the method of Shapiro et al.(Biochemica et Biophysica Acta, 370, 369-377(1974)) as follows.
The enzyme in the supernatant containing the microsome obtained in (Step 1) was activated at 37° C. for 30 min. Added to a reaction tube were 20 μl of HMG-CoA reductase assay buffer(0.25M KH2PO4(pH 7.0), 8.75 mM EDTA, 25 mM DTT, 0.45 M KCl and 0.25 mg/ml BSA), 5 μl of 50 mM NADPH, 5 μl of [^14C]HMG-CoA(0.05μ Ci/tube, final conc. 120μM), and 10 μl of activated microsomal enzyme(0.03-0.04 mg), and the mixture was incubated at 37° C. for 30 min. […] A region having a Rf value ranging from 0.65 to 0.75 was removed by scraping with a disposable cover slips and assayed for radioactivity with 1450 Microbeta liquid scintillation counter(Wallac Co., Finland). Enzyme activities were calculated as picomoles mevalonic acid synthesized per min. per mg protein(pmoles/min/mg protein).

SMILES: CCCCCCCCCCCCCCCCOc1cc(O)c2c(c1)OC(c1ccc(O)cc1)CC2=O (centres unmarked) [NG5006, Naringenin 7-O-cetyl Ether]
- HMG-CoA activity lower than that of the control group (NG5006-fed rat group): 27.5%
- HMG-CoA reductase activity (liver microsomes of rats fed 1% cholesterol plus 0.02% naringenin or 0.036% NG5006, six weeks): 81.6 ± 6.0 pmole/min/mg protein

From US6455577B2, “Flavanone derivatives and composition for preventing or treating blood lipid level-related diseases comprising same” (Korea Research Institute of Bioscience and Biotechnology, priority 2000, dated 2002)
